Laboratory results from patent publication US20260092061A1, “COMPOUNDS FOR TARGETED PROTEIN DEGRADATION” (Amphista Therapeutics Limited, priority 2022, published 2026).

Columns and labels:
BRD9 [1] = target: T1, BRD9 (Homo sapiens, UniProt Q9H8M2); assay: Degradation of BRD9 (IF), immunofluorescence in MV4-11 cells, 24 hours (Assay Protocol 2); type: cell-based; parameters: A suspension of MV4-11 cells (ATCC CRL-9591) was prepared; host or cells: MV4-11; conditions: BRD9 degradation; for DC50: Assay protocol 2, read-out: DC50; for Dmax: MV4-11, Assay protocol 2, read-out: Dmax
T1 sequence (Q9H8M2 1-597): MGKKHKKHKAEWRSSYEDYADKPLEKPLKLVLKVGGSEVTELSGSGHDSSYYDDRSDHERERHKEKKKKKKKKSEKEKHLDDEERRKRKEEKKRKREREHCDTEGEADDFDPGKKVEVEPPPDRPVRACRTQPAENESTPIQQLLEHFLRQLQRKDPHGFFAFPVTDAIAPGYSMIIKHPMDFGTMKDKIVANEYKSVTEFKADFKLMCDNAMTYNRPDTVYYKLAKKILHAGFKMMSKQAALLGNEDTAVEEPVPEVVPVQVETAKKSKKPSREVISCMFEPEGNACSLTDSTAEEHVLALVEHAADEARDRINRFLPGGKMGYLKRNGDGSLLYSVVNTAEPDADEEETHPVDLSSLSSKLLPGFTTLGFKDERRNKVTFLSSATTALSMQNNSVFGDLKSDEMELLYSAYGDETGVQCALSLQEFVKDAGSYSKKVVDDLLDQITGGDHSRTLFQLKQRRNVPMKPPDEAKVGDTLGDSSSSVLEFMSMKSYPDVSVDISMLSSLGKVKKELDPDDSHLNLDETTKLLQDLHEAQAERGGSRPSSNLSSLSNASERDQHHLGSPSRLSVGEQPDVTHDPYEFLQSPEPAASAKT
Summary of the method: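 % BRD9 remaining, scaled between DMSO (high) and 100 nM CFT-8634 (low) control wells, derives from mean Alexa 647 contrast in central nuclei by high-content imaging. MV4-11 cells had 24 h compound exposure at 37° C. before PFA fixation, Triton permeabilisation and anti-BRD9 E4Q3F immunostaining.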

BRD9 [2] = target: T1, BRD9; assay: BRD9 degradation, HiBiT-BRD9 KI HEK293 (LgBiT) cells, NanoGlo Lytic Endpoint assay (Assay Protocol 1); type: cell-based; conditions: Assay protocol 1, BRD9 degradation; for DC50: read-out: DC50; for Dmax: HEK293, read-out: Dmax
Summary of the method: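 HiBiT-tagged BRD9 knock-in HEK293 (LgBiT) cells exposed to compounds for 6 h at 37 °C, 5% CO2. Residual BRD9 measured by HiBiT lytic luminescence. % BRD9 remaining normalised to DMSO-treated cells (high) and no-cell wells (low).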

SMILES	DC50 (BRD9 [1])	Dmax (BRD9 [1])	DC50 (BRD9 [2])	Dmax (BRD9 [2])
COc1cc(-c2cn(C)c(=O)c(C)c2C)cc(OC)c1CN1CCN(Cc2cccc3c2CCN(C(=O)/C(C#N)=C/C2(F)CC2)C3C)CC1 (mixture of isomers) [Compound B20, (E/Z)-2-(5-((4-(2,6-dimethoxy-4-(1,4,5-trimethyl-6-oxo-1,6-dihydropyridin-3-yl)benzyl)piperazin-1-yl)methyl)-1-methyl-1,2,3,4-tetrahydroisoquinoline-2-carbonyl)-3-(1-fluorocyclopropyl)acrylonitrile]	< 1.25 nM	> 75%	< 1.25 nM	> 75%
COc1cc(-c2cn(C)c(=O)c(C)c2C)cc(OC)c1CN(C)Cc1ccc2c(c1)CCN(C(=O)/C(C#N)=C/c1nc3ccccc3s1)C2C (mixture of isomers) [Compound B21, (E/Z)-3-(benzo[d]thiazol-2-yl)-2-(6-(((2,6-dimethoxy-4-(1,4,5-trimethyl-6-oxo-1,6-dihydropyridin-3-yl)benzyl)(methyl)amino)methyl)-1-methyl-1,2,3,4-tetrahydroisoquinoline-2-carbonyl)acrylonitrile]	< 1.25 nM	40 to 70%	1.25 to 10 nM	40 to 70%
COc1cc(-c2cn(C)c(=O)c(C)c2C)cc(OC)c1CN1CCN(Cc2cccc3c2CCN(C(=O)/C(C#N)=C/c2cccc(C)n2)C3C)CC1 (mixture of isomers) [Compound B24, (E/Z)-2-(5-((4-(2,6-dimethoxy-4-(1,4,5-trimethyl-6-oxo-1,6-dihydropyridin-3-yl)benzyl)piperazin-1-yl)methyl)-1-methyl-1,2,3,4-tetrahydroisoquinoline-2-carbonyl)-3-(6-methylpyridin-2-yl)acrylonitrile]	1.25 to 10 nM	40 to 70%	< 1.25 nM	40 to 70%
COc1cc(-c2cn(C)c(=O)c(C)c2C)cc(OC)c1CN1CC2CC(C1)N2Cc1cccc2c1CCN(C(=O)/C(C#N)=C/c1ccnc(C)n1)C2C (mixture of isomers) [Compound B25, (E/Z)-2-(5-((3-(2,6-dimethoxy-4-(1,4,5-trimethyl-6-oxo-1,6-dihydropyridin-3-yl)benzyl)-3,6-diazabicyclo[3.1.1]heptan-6-yl)methyl)-1-methyl-1,2,3,4-tetrahydroisoquinoline-2-carbonyl)-3-(2-methylpyrimidin-4-yl)acrylonitrile]	1.25 to 10 nM	> 75%	1.25 to 10 nM	> 75%
COc1cc(-c2cn(C)c(=O)c(C)c2C)cc(OC)c1CN1CCN(CC(=O)NCCOc2ccc3c(c2)C(C)N(C(=O)/C(C#N)=C/c2nccs2)CC3)CC1 (mixture of isomers) [Compound B29, (E/Z)—N-(2-((2-(2-cyano-3-(thiazol-2-yl)acryloyl)-1-methyl-1,2,3,4-tetrahydroisoquinolin-7-yl)oxy)ethyl)-2-(4-(2,6-dimethoxy-4-(1,4,5-trimethyl-6-oxo-1,6-dihydropyridin-3-yl)benzyl)piperazin-1-yl)acetamide]	10 to 25 nM	> 75%	25 to 1000 nM	70 to 75%
COc1cc(-c2cn(C)c(=O)c(C)c2C)cc(OC)c1CN1CCN(CC(=O)NCCOc2ccc3c(c2)CCN(C(=O)/C(C#N)=C/c2nccs2)C3C)CC1 (mixture of isomers) [Compound B31, (E/Z)—N-(2-((2-(2-cyano-3-(thiazol-2-yl)acryloyl)-1-methyl-1,2,3,4-tetrahydroisoquinolin-6-yl)oxy)ethyl)-2-(4-(2,6-dimethoxy-4-(1,4,5-trimethyl-1-oxo-1,6-dihydropyridin-3-yl)benzyl)piperazin-1-yl)acetamide]	10 to 25 nM	40 to 70%		40 to 70%
COc1cc(-c2cn(C)c(=O)c(C)c2C)cc(OC)c1CN1CCN(CC(=O)NCCOc2cccc(C3CCCN3C(=O)/C(C#N)=C/c3nccs3)c2)CC1 (mixture of isomers) [Compound B32, (E/Z)—N-(2-(3-(1-(2-cyano-3-(thiazol-2-yl)acryloyl)pyrrolidin-2-yl)phenoxy)ethyl)-2-(4-(2,6-dimethoxy-4-(1,4,5-trimethyl-6-oxo-1,6-dihydropyridin-3-yl)benzyl)piperazin-1-yl)acetamide]	25 to 1000 nM	40 to 70%	25 to 1000 nM	40 to 70%
COc1cc(-c2cn(C)c(=O)c(C)c2C)cc(OC)c1CN(C)Cc1ccc(C2CCCN2C(=O)/C(C#N)=C/C(C)(C)C)cc1 (mixture of isomers) [Compound B34]	1.25 to 10 nM	40 to 70%	10 to 25 nM	40 to 70%
COc1cc(-c2cn(C)c(=O)c(C)c2C)cc(OC)c1CN1CCN(C(=O)c2cccc(C3CCCN3C(=O)/C(C#N)=C/C(C)(C)C)c2)CC1 (mixture of isomers) [Compound B35, (E/Z)-2-(2-(3-(4-(2,6-dimethoxy-4-(1,4,5-trimethyl-6-oxo-1,6-dihydropyridin-3-yl)benzyl)piperazine-1-carbonyl)phenyl)pyrrolidine-1-carbonyl)-4,4-dimethylpent-2-enenitrile]	10 to 25 nM	> 75%	25 to 1000 nM	> 75%
COc1cc(-c2cn(C)c(=O)c(C)c2C)cc(OC)c1CN1CCN(Cc2cccc3c2CCN(C(=O)/C(C#N)=C/C2(C(F)(F)F)CCC2)C3C)CC1 (mixture of isomers) [Compound B36, (E/Z)-2-(5-((4-(2,6-dimethoxy-4-(1,4,5-trimethyl-6-oxo-1,6-dihydropyridin-3-yl)benzyl)piperazin-1-yl)methyl)-1-methyl-1,2,3,4-tetrahydroisoquinoline-2-carbonyl)-3-(1-(trifluoromethyl)cyclobutyl)acrylonitrile]	25 to 1000 nM	40 to 70%	1.25 to 10 nM	40 to 70%
COc1cc(-c2cn(C)c(=O)c(C)c2C)cc(OC)c1CN1CCC2(CC1)CCN(c1cccc3c1CCN(C(=O)/C(C#N)=C/C(C)(C)C)C3C)CC2 (mixture of isomers) [Compound B39, (E/Z)-2-(5-(9-(2,6-dimethoxy-4-(1,4,5-trimethyl-6-oxo-1,6-dihydropyridin-3-yl)benzyl)-3,9-diazaspiro[5.5]undecan-3-yl)-1-methyl-1,2,3,4-tetrahydroisoquinoline-2-carbonyl)-4,4-dimethylpent-2-enenitrile]	10 to 25 nM	40 to 70%	25 to 1000 nM	> 75%
COc1cc(-c2cn(C)c(=O)c(C)c2C)cc(OC)c1CN1CCC2(C1)CN(c1cccc3c1CCN(C(=O)/C(C#N)=C/C(C)(C)C)C3C)C2 (mixture of isomers) [Compound B40, (E/Z)-2-(5-(6-(2,6-dimethoxy-4-(1,4,5-trimethyl-6-oxo-1,6-dihydropyridin-3-yl)benzyl)-2,6-diazaspiro[3.4]octan-2-yl)-1-methyl-1,2,3,4-tetrahydroisoquinoline-2-carbonyl)-4,4-dimethylpent-2-enenitrile]	< 1.25 nM	40 to 70%	< 1.25 nM	40 to 70%
COc1cc(-c2cn(C)c(=O)c(C)c2C)cc(OC)c1CN1CCN(c2cccc(C3CCCN3C(=O)/C(C#N)=C/C(C)(C)C)c2)CC1 (mixture of isomers) [Compound B41, (E/Z)-2-(2-(3-(4-(2,6-dimethoxy-4-(1,4,5-trimethyl-4-oxo-1,6-dihydropyridin-3-yl)benzyl)piperazin-1-yl)phenyl)pyrrolidine-1carbonyl)-4,4-dimethylpent-2-enenitrile]	10 to 25 nM	> 75%	1.25 to 10 nM	> 75%
COc1cc(-c2cn(C)c(=O)c(C)c2C)cc(OC)c1CN1CCN(c2ccc(C3CCCN3C(=O)/C(C#N)=C/C(C)(C)C)cc2)CC1 (mixture of isomers) [Compound B42, (E/Z)-2-(2-(4-(4-(2,6-dimethoxy-4-(1,4,5-trimethyl-6-oxo-1,6-dihydropyridin-3-yl)benzyl)piperazin-1-yl)phenyl)pyrrolidine-1-carbonyl)-4,4-dimethylpent-2-enenitrile]		40 to 70%	10 to 25 nM	40 to 70%
COc1cc(-c2cn(C)c(=O)c(C)c2C)cc(OC)c1CN1CCC(Oc2cccc3c2CCN(C(=O)/C(C#N)=C/C(C)(C)C)C3C)CC1 (mixture of isomers) [Compound B44, (E/Z)-2-(5-((1-(2,6-dimethoxy-4-(1,4,5-trimethyl-6-oxo-1,6-dihydropyridin-3-yl)benzyl)piperidin-4-yl)oxy)-1-methyl-1,2,3,4-tetrahydroisoquinoline-2-carbonyl)-4,4-dimethylpent-2-enenitrile]	< 1.25 nM	40 to 70%	< 1.25 nM	> 75%
